In patent US9593305B2, “Differentiation of pluripotent stem cells” (Janssen Biotech, Inc., priority 2008, dated 2017):

System: H1 human embryonic stem cells
Experiment: Bioassay validation: activin A titration with or without Wnt3a, cell number and SOX17 intensity (Example 2)
Type: cell-based
Conditions: with 20 ng/ml Wnt3a days 1-2, four-day assay
Source text: Activin A is an important mediator of differentiation in a broad range of cell types, including differentiation of embryonic stem cells to definitive endoderm. […] A bioassay that measures this differentiation in human embryonic stem cells was adapted in miniaturized format to 96-well plates for screening purposes. Validation was completed using treatment with commercial sources of activin A and Wnt3a recombinant proteins and measuring protein expression of the transcription factor SOX17, considered to be a representative marker of definitive endoderm.
Briefly, clusters of H1 human embryonic stem cells were grown on reduced growth factor […]™ (Invitrogen; Cat #356231)-coated tissue culture plastic. Cells were passaged using collagenase (Invitrogen; Cat #17104-019) treatment and gentle scraping, washed to remove residual enzyme, and plated in a ratio of 1:1 (surface area) on reduced growth factor […]™-coated 96-well black plates (Packard ViewPlates; Perkin Elmer; Cat #6005182). […]
Imaging was performed using an IN Cell Analyzer 1000 (GE Healthcare) utilizing the 51008bs dichroic for cells stained with Hoechst 33342 and Alexa Fluor 488. […] Segmentation for the nuclei was determined based on gray-scale levels (baseline range 100-300) and nuclear size. […]

Activin A: recombinant human activin A (PeproTech), TGF-beta family member
EC50 for induction of SOX17 expression: 0.03 to 0.05 µg/mL
Optimal activin A effects for induction of SOX17 expression (concentration range): 100 to 200 ng/mL
